Tests used:
[1] = cited from earlier work
[2] = target: T1, recombinant rat A1 adenosine receptor (Rattus norvegicus, UniProt P25099); experiment: A1 adenosine receptor TRF Eu-GTP binding assay, standard curve for LPS; type: biochemical; details: CHO cell membranes, Eu-GTP 10 nM, % basal activity; mean of 8-10 independent assays, LPS 10 pg/mL-100 ng/mL
T1 construct: purchased PerkinElmer, Waltham, Mass; host or cells: CHO cells (membranes)
T1 sequence (P25099 1-326): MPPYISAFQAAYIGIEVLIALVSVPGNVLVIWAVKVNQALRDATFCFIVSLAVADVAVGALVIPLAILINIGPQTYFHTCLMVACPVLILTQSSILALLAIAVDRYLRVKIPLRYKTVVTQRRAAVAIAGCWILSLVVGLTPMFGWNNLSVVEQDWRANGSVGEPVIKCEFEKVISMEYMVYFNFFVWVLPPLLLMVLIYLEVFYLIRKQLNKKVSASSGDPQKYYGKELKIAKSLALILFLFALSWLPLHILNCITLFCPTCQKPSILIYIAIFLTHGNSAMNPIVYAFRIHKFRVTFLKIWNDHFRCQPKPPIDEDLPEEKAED
Experimental: To generate a standard LPS/endotoxin standard curve membranes prepared from CHO cells (1 unit/well corresponding to approximately 20 μg of protein per well; PerkinElmer, Waltham, Mass.) expressing the recombinant rat A1 adenosine receptor are preincubated in an Acrowell filter plate (Pall Life Sciences, Ann Arbor, Mich.) in the presence of LPS/endotoxin (USP, Rockville, Md.) (0.01-750 ng/mL). The endotoxin stock solution is prepared by dissolving 10,000 endotoxin units (corresponding to 1000 ng) in 333 μL of endotoxin free water. […] Each assay point is evaluated in triplicate. […] Fluorescence in each well is determined with an Infinite F-200 PRO (Tecan, Grodig, Austria) using fluorescent top read with an excitation wavelength of 320 nm, emission wavelength of 620 nm, and gain setting of 109. Eu-GTP basal activity is calculated as the difference between total Eu-GTP bound and nonspecific Eu-GTP bound. Percent (%) basal is calculated as follows: [(test condition−nonspecific)/(basal activity)]*100. […] The standard curve is analyzed by nonlinear regression (GraphPad Prism, version 5, GraphPad Software, La Jolla, Calif.) using a sigmoidal dose-response curve with variable slope to determine EC50. Each standard curve represents a minimum of three independent experiments and final data are expressed as the mean±SEM. […]

Row | Substance | adverse side effect ([1]; in vivo) | reduction of absolute mortality compared to placebo ([1]; sepsis patients, definitive large clinical trials (Bernard et al., 2001)) [%] | sensitivity of the assay for LPS [2] [pg/mL]
1 | drotrecogin alfa [Xigris, drotrecogin alfa [activated]] | serious adverse side effect of bleeding | 6 | –
2 | lipopolysaccharide [LPS] | – | – | 10

— patent publication US20130183696A1, “METHODS OF USE AND KIT FOR MEASUREMENT OF LIPOPOLYSACCHARIDE WITH A TIME RESOLVED FLUORESCENCE BASED ASSAY” (priority 2010, published 2013)
